Measured values taken from BigSolDB 2.1.

COC(=O)Nc1ccc(C)c(NC(=O)OC)c1
Conditions	solubility (mole fraction)
in di(2-ethylhexyl) phthalate, 334.25 K	0.167
in di(2-ethylhexyl) phthalate, 346.95 K	0.172
in di(2-ethylhexyl) phthalate, 363.65 K	0.178
in di(2-ethylhexyl) phthalate, 378.65 K	0.186
in di(2-ethylhexyl) phthalate, 389.55 K	0.195
in di(2-ethylhexyl) phthalate, 398.15 K	0.2
in dimethyl carbonate, 307.75 K	0.0087
in dimethyl carbonate, 316.15 K	0.013
in dimethyl carbonate, 324.35 K	0.0173
in dimethyl carbonate, 330.65 K	0.0216
in dimethyl carbonate, 335.85 K	0.0258
in dimethyl carbonate, 339.35 K	0.0299
in dimethyl carbonate, 343.65 K	0.0341
in dimethyl carbonate, 353.15 K	0.0423
in dimethyl carbonate, 360.75 K	0.0503
in dimethyl carbonate, 365.15 K	0.0535

Cc1ccc(N)cc1N
Conditions	solubility (mole fraction)
in di(2-ethylhexyl) phthalate, 312.45 K	0.061
in di(2-ethylhexyl) phthalate, 324.25 K	0.075
in di(2-ethylhexyl) phthalate, 332.52 K	0.0871
in di(2-ethylhexyl) phthalate, 340.05 K	0.0972
in di(2-ethylhexyl) phthalate, 349.75 K	0.108
in di(2-ethylhexyl) phthalate, 361.55 K	0.127
in dimethyl carbonate, 305.75 K	0.107
in dimethyl carbonate, 310.05 K	0.113
in dimethyl carbonate, 312.85 K	0.116
in dimethyl carbonate, 316.55 K	0.118
in dimethyl carbonate, 317.45 K	0.121
in dimethyl carbonate, 321.35 K	0.124
in dimethyl carbonate, 327.35 K	0.126
in dimethyl carbonate, 333.45 K	0.129

COC(=O)Nc1ccc(C)c(N)c1
Conditions	solubility (mole fraction)
in di(2-ethylhexyl) phthalate, 326.55 K	0.032
in di(2-ethylhexyl) phthalate, 333.75 K	0.0422
in di(2-ethylhexyl) phthalate, 341.65 K	0.0522
in di(2-ethylhexyl) phthalate, 349.95 K	0.062
in di(2-ethylhexyl) phthalate, 363.55 K	0.081
in di(2-ethylhexyl) phthalate, 391.85 K	0.0992
in dimethyl carbonate, 306.35 K	0.0339
in dimethyl carbonate, 314.25 K	0.0446
in dimethyl carbonate, 316.75 K	0.0499
in dimethyl carbonate, 320.65 K	0.0552
in dimethyl carbonate, 323.45 K	0.0604
in dimethyl carbonate, 328.25 K	0.0655
in dimethyl carbonate, 334.45 K	0.0706
in dimethyl carbonate, 341.85 K	0.0756
